Measurements reported in publication PMC11245619, “Asymmetric total synthesis of polycyclic xanthenes and discovery of a WalK activator active against MRSA” (Nature Communications, 2024).
Converted amounts (≈) assume the structure as drawn.

Legend:
[1] = system: T1, Staphylococcus aureus ATCC 29213 (SA29213); assay: microbe, parasite or virus in culture; set-up: broth microdilution MIC (CLSI), growth inhibition read by MTT; settings: ATCC29213, 24 h, read-out: MIC
T1 construct: ATCC 29213
Experimental: Antibacterial activities of synthetic compounds in vitro The MICs of the antibacterial agents for all strains were determined using the broth microdilution method according to CLSI guidelines. Wells of 96-well microtiter plates (Nunc, Thermo Fisher Scientific Inc., Roskilde) were inoculated with 100 µL of CAMH broth or CAMH broth with 3% lysed horse blood (S. pneumoniae only), containing serially-diluted antimicrobials and a final inoculum of 5 × 10^5 CFU/mL. The concentration ranges were from 0.0625 to 128 μg/mL for each compound: daptomycin, vancomycin, polymyxin B and oxacillin. The microtiter plates were incubated at 37 °C for 24 h. The MIC was defined as the lowest concentration of an antimicrobial agent that inhibited 90% of bacterial growth determined by the MTT assay (MCE, USA)]. All MIC determinations were performed in duplicate.

WalK (erWalKR86C) = molecular target: T2, WalK (erWalKR86C) (Staphylococcus aureus, UniProt Q6GKS6, R86C); assay: SPR (Biacore 8K, CM5 chip); assay type: binding
T2 construct: erWalK (residues 35-182) with R86C mutation
T2 sequence (Q6GKS6 35-182 R86C): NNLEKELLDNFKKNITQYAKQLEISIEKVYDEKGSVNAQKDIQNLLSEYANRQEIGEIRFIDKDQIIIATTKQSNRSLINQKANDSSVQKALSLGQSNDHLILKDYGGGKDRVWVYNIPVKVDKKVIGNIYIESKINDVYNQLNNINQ

WalK (erWalK) = molecular target: T3, WalK (erWalK) (Staphylococcus aureus, UniProt Q6GKS6); assay: SPR (Biacore 8K, CM5 chip); assay type: binding
T3 construct: extracellular part of the receptor WalK (erWalK, residues 35-182)

Compound | MIC [1] [µg/mL] | Kd (WalK (erWalKR86C)) [µM] | Kd (WalK (erWalK)) [µM]
CC(=O)NC[C@H]1CN(c2ccc(N3CCOCC3)c(F)c2)C(=O)O1 [Linezolid] | 2.5 (≈ 7.41 µM) |  | 
CN[C@H](CC(C)C)C(=O)N[C@H]1C(=O)N[C@@H](CC(N)=O)C(=O)N[C@H]2C(=O)N[C@H]3C(=O)N[C@H](C(=O)N[C@H](C(=O)O)c4cc(O)cc(O)c4-c4cc3ccc4O)[C@H](O)c3ccc(c(Cl)c3)Oc3cc2cc(c3O[C@@H]2O[C@H](CO)[C@@H](O)[C@H](O)[C@H]2O[C@H]2C[C@](C)(N)[C@H](O)[C@H](C)O2)Oc2ccc(cc2Cl)[C@H]1O [Vancomycin] | 1 (≈ 0.69 µM) |  | 
CC1COc2c(N3CCN(C)CC3)c(F)cc3c(=O)c(C(=O)O)cn1c23 (stereo not drawn) [Ofloxacin] | 0.2 (≈ 0.553 µM) |  | 
CN(C)c1cc(NC(=O)CNC(C)(C)C)c(O)c2c1C[C@H]1C[C@H]3[C@H](N(C)C)C(O)=C(C(N)=O)C(=O)[C@@]3(O)C(O)=C1C2=O [Tigecycline] | 0.312 (≈ 0.534 µM) |  | 
C[C@@H](O)[C@H]1C(=O)N2C(C(=O)O)=C(S[C@@H]3CN[C@H](C(=O)N(C)C)C3)[C@H](C)[C@H]12 [Meropenem] | 0.312 (≈ 0.815 µM) |  | 
CC(C)C(=O)c1c(O)c(C(C2=C(O)C(C)(C)C(=O)C(C)(C)C2=O)C(C)C)c(O)c2c1OC1=C(C(=O)C(C)(C)C(=O)C1(C)C)C2C(C)C (stereo not drawn) [compound 22, 22] | 0.5 (≈ 0.768 µM) | 73.8 | 11.1
NC[C@H]1O[C@H](O[C@H]2[C@H](O)[C@@H](O[C@H]3O[C@H](CO)[C@@H](O)[C@H](N)[C@H]3O)[C@H](N)C[C@@H]2N)[C@H](O)[C@@H](O)[C@@H]1O [Kanamycin] | 10 (≈ 20.6 µM) |  | 
